Like-named read-outs stand apart in the source and are kept apart here.
Assays:
[1] = tested on: Banana, Tomato and slices of avocado; yeast and/or bacteria
From the text: Representative samples include fruits (Banana), and vegetables (Tomato) and slices of avocado. Experiments were repeated at least four times and each food category included a minimum of six items in each group. The containers were made of gas impermeable Plexiglas that snugly fitted onto the container rim. Fruits were placed on regular kitchen towels that covered the bottom of the containers. Control and experimental group (Exp) of fruits were placed in separate containers. The amount of H2S—H2 gas within the Exp containers varied from 5-15 ppm during the course of exposure. When the level dropped below 5 ppm, the H2 gas was substituted. Experiment was carried out at room temperature for the durations shown. […] Growth of bacteria and yeast was checked by taking samples of food and streaking them over agar. Samples from each fruit were diluted in phosphate buffered saline, pH 7.4. From each sample, 20 microliters was streaked on agar plates and plates were maintained either at room temperature or at 37° C.

[2] = tested on: strawberries; micro-organisms
Protocol: Fruits were treated without or with gas with each gas at 40 ppm. N=12, Differences between control and treated groups (P<0.05-P<0.005).

[3] = 0.01-0.1 mol/liter solutions at 18° C.; cited from earlier work
bacteria and yeast = experiment: Agar plates stored with H2S gas 40 ppm (FIG. 11, 104); format: cell-based; conditions: H2S 40 ppm
From the text: Representative samples of foods shown include fruits, and vegetables. […] Control foods were stored in closed containers. The containers were made of aluminum with a plastic lid that snugly fitted onto the container rim. […] The inlet and outlet valves were then closed. Using a H2S gas detector capable of detecting 1 to 500 ppm of H2S, no H2S was detected outside the chamber. […] There is small change in color, consistency, and of the same food group and there is no evidence of growth of yeast in the H2S gas-treated group. Growth of bacteria and yeast was checked by taking samples of food and streaking them over agar. […] Strawberry 80. […] This growth was quite evident on day 5 (arrows, 81). The fruit also lost its consistency and is discolored. […] Banana, 86. Growth of yeast is seen by day 8 in the control group. The fruit also lost its consistency and is discolored. […] A slice of banana 99. […] The fruit also lost its consistency and is discolored. […] Pistachio 101. […] Green bananas 102. Green bananas in each group were used in this experiment. The control bananas ripened, developed a yellow color that still maintained some of their green color on day 8. Tomatoes 103. Green tomatoes in each group were used in this experiment. […] Samples from each fruit were diluted in phosphate buffered saline, pH 7.4. […]

mice = conditions: cited from earlier work
humans = conditions: cited from earlier work
[4] = in water; cited from earlier work
[5] = tested on: Strawberry, Blackberry, Raspberry, Banana, Tomato and Avocado; mold and/or bacteria
From the text: Representative samples include but are not limited to (Strawberry, Blackberry, Raspberry, Banana, Tomato and Avocado). Experiments were repeated at least four times and each food category included a minimum of six items in each group. The containers were made of gas impermeable plexi-glass that snugly fitted onto the container rim. Fruits were placed on regular kitchen towels that covered the bottom of the container. Control and experimental group (Exp) of fruits were placed in separate containers. […] When the level dropped below 5 ppm, the H2 gas was substituted. Experiment was carried out at room temperature for the durations shown.

[6] = in water; cited from earlier work; remark: listed apart in the source

## [He] [Helium]
[1]; closed environment, room temperature
  food spoilage: prevents food spoilage
[2]
  growth of micro-organisms: retarded but did not prevent growth of micro-organisms
[2]; relative to Hydrogen
  effect on ripening and oxidation: greater than Hydrogen
  prevention of food spoilage: comparable with Hydrogen

## S [Hydrogen Sulfide]
[3]
  pKa (giving the hydro-sulfide ion HS^−): 6.9
Bacteria and yeast
  time without growth following initiation of cultures: up to 2 months
mice; 81 ppm H2S, 6 hours
  health consequences after the procedure: no negative health consequences
mice; mice treated with Hydrogen Sulfide (81 ppm)
  blood pressure: did not significantly decrease
mice; range of 80 ppm
  side effects: no side effects
humans; 5 minute exposure
  lethal concentration for 50% of humans (LC50): 800 ppm
humans; after a few inhalations
  concentration at which the olfactory nerve is paralyzed: 100-150 ppm
humans; even after a single breath
  concentration causing immediate collapse with loss of breathing: over 1000 ppm
humans; in vivo
  borderline concentration for eye irritation: 10-20 ppm
  concentration causing strong stimulation of the central nervous system and rapid breathing, leading to loss of breathing: 530-1000 ppm
  concentration leading to eye damage: 50-100 ppm
  concentration leading to pulmonary edema with the possibility of death: 320-530 ppm
  concentration with an exposure limit of 8 hours per day: < 10 ppm
  recognition threshold, concentration at which 50% of humans can detect the odor: 0.0047 ppm
  threshold level at which the oxidative (detoxifying) enzymes get overwhelmed: 300-350 ppm

## [HH] [Hydrogen]
[4]
  reaction rate constant k, .O^− + H2: 8e+07 M⁻¹ s⁻¹
[1]
  food spoilage: prevents food spoilage
[5]; H2 5-45 ppm, closed container, room temperature
  food spoilage and growth of mold and/or bacteria: prevents food spoilage and retards but does not inhibit growth of mold and/or bacteria
[5]; Strawberry, Raspberry, Blackberry, control day 3, less severe than control
  day on which growth of mold is evident: 4 days
[5]; day 4
  discoloration and yeast growth on avocado slice: only moderate surface discoloration and no evidence of growth of yeast
[5]; day 4, versus control
  ripening and surface discoloration of un-ripened bananas: less ripening and discoloration
  ripening of un-ripened tomato: less ripening
[6]
  reaction rate constant k, .OH + H2: 4.2e+07 M⁻¹ s⁻¹

Source: patent US20140342065A1 (priority 2012, published 2014)
